These results are taken from ChEMBL document CHEMBL4390652, “Design, biological evaluation and X-ray crystallography of nanomolar multifunctional ligands targeting simultaneously acetylcholinesterase and glycogen synthase kinase-3” (Eur J Med Chem, 2019).

Test [1] relates to Tyrosine-protein kinase ABL1 (Homo sapiens), P00519 [Q252H]. Description: Binding affinity to human non-phosphorylated ABL1 Q252H mutant (S229 to K512 residues) expressed in mammalian expression system assessed as residual binding level at 10 uM by Kinomescan method relative to control.
In test [2] the target is Tyrosine-protein kinase Fyn (Homo sapiens) (UniProt P06241). The test is described as follows: Binding affinity to wild-type human partial length FYN (T243 to L534 residues) expressed in bacterial expression system assessed as residual binding level at 10 uM by Kinomescan method relative to control.
Test [3] addresses Serine/threonine-protein kinase Nek6 (Homo sapiens) (UniProt Q9HC98). Description: Binding affinity to wild-type human full length NEK6 (M8 to T313 residues) expressed in bacterial expression system assessed as residual binding level at 10 uM by Kinomescan method relative to control.
For test [4], the target named is Receptor tyrosine-protein kinase erbB-3 (Homo sapiens) (UniProt P21860). Description: Binding affinity to wild-type human partial length ERBB3 (G684 to A987 residues) expressed in mammalian expression system assessed as residual binding level at 10 uM by Kinomescan method relative to control.
Test [5] concerns the target Transient receptor potential cation channel subfamily M member 6 (Homo sapiens) (UniProt Q9BX84). The test is described as follows: Binding affinity to wild-type human partial length TRPM6 (Q1723 to I1998 residues) expressed in mammalian expression system assessed as residual binding level at 10 uM by Kinomescan method relative to control.
The target in test [6] is Serine/threonine-protein kinase Sgk1 (Homo sapiens) (UniProt O00141). The test is described as follows: Binding affinity to wild-type human partial length SGK (I60 to L431 residues) expressed in mammalian expression system assessed as residual binding level at 10 uM by Kinomescan method relative to control.
Test [7] has as its target Ribosomal protein S6 kinase alpha-3 (Homo sapiens) (UniProt P51812). The test is described as follows: Binding affinity to wild-type human partial length C-terminal RSK2 kinase domain 2 (V402 to S715 residues) expressed in mammalian expression system assessed as residual binding level at 10 uM by Kinomescan method relative to control.
For test [8], the target named is Serine/threonine-protein kinase STK11 (Homo sapiens) (UniProt Q15831). Description: Binding affinity to wild-type human full length LKB1 (M1 to Q433 residues) expressed in bacterial expression system assessed as residual binding level at 10 uM by Kinomescan method relative to control.
For test [9], the target named is Serine/threonine-protein kinase Nek4 (Homo sapiens) (UniProt P51957). The test is described as follows: Binding affinity to wild-type human full length NEK4 (M1 to F841 residues) expressed in mammalian expression system assessed as residual binding level at 10 uM by Kinomescan method relative to control.
Test [10] concerns the target RAC-beta serine/threonine-protein kinase (Homo sapiens) (UniProt P31751). Description: Binding affinity to wild-type human partial length AKT2 expressed in bacterial expression system assessed as residual binding level at 10 uM by Kinomescan method relative to control.
Test [11] addresses Cyclin-dependent kinase 9 (Homo sapiens) (UniProt P50750). Description: Binding affinity to wild-type human full length CDK9 (M1 to F372 residues) expressed in bacterial expression system assessed as residual binding level at 10 uM by Kinomescan method relative to control.
The target of test [12] is Serine/threonine-protein kinase pim-1 (Homo sapiens) (UniProt P11309). Description: Binding affinity to wild-type human partial length PIM1 (A15 to K313 residues) expressed in bacterial expression system assessed as residual binding level at 10 uM by Kinomescan method relative to control.
Test [13] concerns the target Serine/threonine-protein kinase Chk2 (Homo sapiens) (UniProt O96017). The test is described as follows: Binding affinity to wild-type human partial length CHEK2 (S253 to E574 residues) expressed in bacterial expression system assessed as residual binding level at 10 uM by Kinomescan method relative to control.
For test [14], the target named is Dual specificity testis-specific protein kinase 1 (Homo sapiens) (UniProt Q15569). The test is described as follows: Binding affinity to wild-type human full length TESK1 (R37 to S626 residues) expressed in bacterial expression system assessed as residual binding level at 10 uM by Kinomescan method relative to control.
For test [15], the target named is Serine/threonine-protein kinase 38 (Homo sapiens) (UniProt Q15208). The test is described as follows: Binding affinity to wild-type human partial length NDR1 (N33 to E449 residues) expressed in mammalian expression system assessed as residual binding level at 10 uM by Kinomescan method relative to control.
Test [16] has as its target Mitogen-activated protein kinase 10 (Homo sapiens) (UniProt P53779). The test is described as follows: Binding affinity to wild-type human partial length JNK3 (V28 to Q422 residues) expressed in mammalian expression system assessed as residual binding level at 10 uM by Kinomescan method relative to control.
Test [17] addresses Calcium-dependent protein kinase 1 (Plasmodium falciparum) (UniProt P62344). Description: Binding affinity to wild-type Plasmodium falciparum full length CDPK1 (M1 to S524 residues) expressed in mammalian expression system assessed as residual binding level at 10 uM by Kinomescan method relative to control.
Test [18] concerns the target RAC-alpha serine/threonine-protein kinase (Homo sapiens) (UniProt P31749). The test is described as follows: Binding affinity to wild-type human partial length AKT1 expressed in bacterial expression system assessed as residual binding level at 10 uM by Kinomescan method relative to control.
Test [19] concerns Phosphatidylinositol 4,5-bisphosphate 3-kinase catalytic subunit alpha isoform (Homo sapiens), P42336 [H1047L]. Description: Binding affinity to human partial length PIK3CA H1047L mutant (R108 to N1068 residues) expressed in mammalian expression system assessed as residual binding level at 10 uM by Kinomescan method relative to control.
Test [20] deals with Interleukin-1 receptor-associated kinase 4 (Homo sapiens) (UniProt Q9NWZ3). Description: Binding affinity to wild-type human partial length IRAK4 (M1 to S460 residues) expressed in mammalian expression system assessed as residual binding level at 10 uM by Kinomescan method relative to control.
Test [21] has as its target Mitogen-activated protein kinase kinase kinase 2 (Homo sapiens) (UniProt Q9Y2U5). Description: Binding affinity to wild-type human partial length MAP3K2 (S315 to H619 residues) expressed in mammalian expression system assessed as residual binding level at 10 uM by Kinomescan method relative to control.
Test [22] concerns the target Fibroblast growth factor receptor 1 (Homo sapiens) (UniProt P11362). Description: Binding affinity to wild-type human partial length FGFR1 (P357 to V669 residues) expressed in bacterial expression system assessed as residual binding level at 10 uM by Kinomescan method relative to control.
Test [23] has as its target Mitogen-activated protein kinase kinase kinase 4 (Homo sapiens) (UniProt Q9Y6R4). The test is described as follows: Binding affinity to wild-type human partial length MAP3K4 (G1319 to E1608 residues) expressed in bacterial expression system assessed as residual binding level at 10 uM by Kinomescan method relative to control.
Test [24] concerns the target Dual specificity protein kinase CLK1 (Homo sapiens) (UniProt P49759). Description: Binding affinity to wild-type human full length CLK1 (M1 to I484 residues) expressed in bacterial expression system assessed as residual binding level at 10 uM by Kinomescan method relative to control.

With `O=C(Nc1cc(-c2cn(CCNc3c4c(nc5ccccc35)CCCC4)nn2)ccn1)Nc1cccc2c1C1CCCCN1C2=O` (racemic), the Activity in [1] was 4.5%; in test [2] it was 74%; in test [3] it was 28%; in test [4], 73%; in test [5], 100%; in [6], 0.3%. Moreover, the Activity in test [7] turned out to be 100%; in [8], 36%; in test [9] it was 98%; in [10], 80%; in [11] it was 3.8%; in [12] it was 25%. Also, the Activity in test [13] was 90%; in test [14], 75%; in test [15], 100%; in [16], 1.3%; in test [17] it was 4%; in [18], 100%. For the same compound, the Activity in test [19] was 93%; in test [20], 93%; in [21] it was 9.1%; in test [22] it was 27%; in test [23] it was 79%; in [24], 4.5%.
